Experimental data from patent US20250281564A1, “DYSREGULATION OF NEUROPROTEASOMES BY APOE ISOFORMS DRIVES ENDOGENOUS TAU AGGREGATION” (The Trustees of Columbia University in the City of New York, priority 2022, published 2025).
Residues, ends and D or L forms follow the SMILES beside them. *: point of attachment. Cbz = O=C(OCc1ccccc1)*

Experiments:
p62, LC3bI/II, Ulk1 = experiment: Autophagy marker immunoblot in primary neurons; format: cell-based, mouse; settings: 12 hours, DIV14 WT primary cortical neurons
From the text: (FIG. 4A) (Top) Structure of azide-PEG24-epoxomicin handle to enable rapid conjugation of linkers to global proteasome inhibitor epoxomicin using Click chemistry. (Bottom) Structure of Neuroproteasome-specific inhibitor impermeant Biotin-PEG24-Epoxomicin (iBEp). (FIG. 4B) Assessing permeability of iBEp in primary neurons. […] Cytosolic (Cyto) and membrane (Mem) fractions were immunoblotted using indicated antibodies. (FIG. 4C) Proteasome catalytic activity of membrane (Mem) and cytosolic (Cyto) fractions of neurons treated with iBEp. […] Proteasome catalytic activity was assessed by monitoring degradation of Suc-LLVY-AMC; proteasome-dependent cleavage of the substrate increases AMC fluorescence. N=3 biological replicates. **** p<0.0001 by One-Way ANOVA. (FIG. 4D) Primary neurons treated with iBEp probed for autophagy markers. […] Lysates were immunoblotted using indicated antibodies against common autophagy markers. Quantification of p62, LC3b, and Ulk1 intensities normalized to Actin. […] (FIG. 4E) Schematic to analyze changes in sarkosyl-soluble and insoluble proteomes in response to neuroproteasome inhibition. […] Sarkosyl-soluble and insoluble fractions were labeled with Tandem Mass Tags (TMTpro) for quantitative mass spectrometry. (FIG. 4F) Differential enrichment of proteins in the sarkosyl-soluble fraction of neurons treated with iBEp versus DMSO was analyzed and plotted as log 2-fold change vs-log 10 (P-value). Green dots represent proteins enriched in the iBEp treatment compared to DMSO treatment. (FIG. 4G) Graphs plotting the log 2-fold change of select Neuroproteasome substrates enriched in the sarkosyl-soluble fraction from MS analysis in (FIG. 4F) compared to UPS substrates and autophagy markers ** p<0.01 (adjusted p-value after multiple corrections). (FIG. 4H) Differential enrichment of proteins in the sarkosyl-insoluble fraction of neurons treated with iBEp versus DMSO was analyzed and plotted as log 2-fold change vs −log 10 (P-value). Green dots represent proteins enriched in the iBEp treatment compared to DMSO treatment. (FIG. 4I) (Left) Identification of proteins which are exclusively enriched in the insoluble fraction with no corresponding change in the soluble fraction (red). Plk2 represents the only protein which is enriched in the soluble fraction with no corresponding change in the insoluble fraction (green). Proteins plotted as differences in log 2 fold changes. (Right) Graphs plotting the log 2 fold changes of insoluble Tau (top) and soluble Tau (bottom) enriched in neurons treated with iBEp vs DMSO. ** p<0.01 (adjusted p-value after multiple corrections).
FIG. 5A-5G: Neuroproteasomes are differentially regulated by ApoE isoforms to determine formation of endogenous sarkosyl-insoluble Tau inclusions. […]

endogenous mouse Tau = experiment: Sarkosyl fractionation and Tau immunoblot, WT primary cortical neurons; format: cell-based; settings: 1 μM, 12 hours, vs DMSO
From the text: (§1) (FIG. 5A) Effect of neuroproteasome-specific inhibitor iBEp on Tau aggregation in primary neurons. […] Quantification of soluble and insoluble murine Tau (mTau) intensities normalized to soluble GAPDH. […] (FIG. 5B) Effect of neuroproteasome inhibition on aggregation of human Tau (hTau). […] (FIG. 5C) Generation of reversible neuroproteasome inhibitors to test effects of neuroproteasome inhibition. (Top) Structure of Sulfo-MG132 (SulfoMG). […] (FIG. 5D) Effect of reversible neuroproteasome inhibition using SulfoMG on Tau aggregation. […] Quantification of soluble and insoluble Tau intensities were normalized to soluble GAPDH. Data (right) are mean±SEM normalized respective to DMSO controls. […] (FIG. 5E) Testing iBEp permeability in vivo. […] 72 hours post injection, hippocampi were isolated and subjected to membrane fractionation without detergent. […] (FIG. 5F) Effect of neuroproteasome inhibition on Tau aggregation in vivo.

human Tau = experiment: Sarkosyl fractionation and Tau immunoblot, hTau-KI primary cortical neurons; format: cell-based; settings: 1 μM, 12 hours, vs DMSO
From the text: as §1

Compound	LC3bI/II (p62, LC3bI/II, Ulk1)	p62 levels (p62, LC3bI/II, Ulk1)	sarkosyl-insoluble Tau, WT neurons (endogenous mouse Tau)	sarkosyl-insoluble Tau, hTau-KI neurons (human Tau)
CC[C@H](C)[C@H](NC(=O)[C@H]([C@@H](C)CC)N(C)C(C)=O)C(=O)N[C@H](C(=O)N[C@@H](CC(C)C)C(=O)[C@@]1(C)CO1)[C@@H](C)O [Epoxomicin, reference compound]	little to no change in LC3bI/II	strong induction of p62	no change in sarkosyl-insoluble Tau	no change in sarkosyl-insoluble Tau
CC(C)C[C@@H](C=O)NC(=O)[C@H](CC(C)C)NC(=O)[C@H](CC(C)C)NC(=O)OCc1ccccc1 [MG132, reference compound] (Cbz-Leu-Leu-Leu-aldehyde)	–	–	–	does not affect the sarkosyl-insoluble accumulation of Tau
